The half-life is the time in which the quantity being followed falls by half. A lower half-life goes with fast loss. A word on the AUC(0-inf): it is total exposure, with the tail of the curve extrapolated. Read a low AUC(0-inf) as low exposure.

Data set [1] can be described thus: Plasma stability, rat. Particulars: male, Sprague-Dawley.
Data set [2] in a line: Plasma stability, human. The conditions noted are these: both.
Data set [3] in a line: Plasma stability, mouse. The conditions noted are these: male, CD-1, mouse.
Data set [4] can be described thus: Liver microsome stability, rat. The conditions noted are these: male, Sprague-Dawley, liver microsomes, pH 7.4. Background: Microsomes from liver hold many membrane-bound enzymes, among them those of drug oxidation.
Data set [5] is described as follows: Liver microsome stability, human. The conditions noted are these: both, liver microsomes, pH 7.4.
The nature of data set [6]: Liver microsome stability, mouse. The conditions noted are these: male, CD-1, mouse, liver microsomes, pH 7.4.
A short description of data set [7]: Mouse plasma PK, single dose PO or IP. The conditions noted are these: female, ICR (CD-1).

`CC(C)C(=O)OC[C@@]1(F)O[C@@H](n2ccc(=O)[nH]c2=O)[C@H](OC(=O)C(C)C)[C@@H]1OC(=O)C(C)C` [EIDD-2954, [(2S,3S,4R,5R)-5-(2,4-dioxopyrimidin-1-yl)-2-fluoro-3,4-bis(2-methylpropanoyloxy)tetrahydrofuran-2-yl]methyl 2-methylpropanoate]: the half-life at 1 μM in data set [1] was 1 min; in data set [2] it was 2 min; in data set [3], 1 min; in data set [4] it was less than 1 min; in data set [5] it was less than 1 min; in data set [6], less than 1 min.
As for `CC(C)C(=O)OC[C@@]1(F)OC(n2ccc(=O)[nH]c2=O)C(O)[C@@H]1O` (stereo partly drawn) [EIDD-2947, [(2S,3S)-5-(2,4-dioxopyrimidin-1-yl)-2-fluoro-3,4-dihydroxy-tetrahydrofuran-2-yl]methyl 2-methylpropanoate], the half-life at 1 μM in data set [1] amounted to 9 min; in data set [2], 2 min; in data set [3], 1 min; in data set [4], 10 min; in data set [6], 1 min.
With `O=c1ccn([C@@H]2O[C@](F)(CO)[C@@H](O)[C@H]2O)c(=O)[nH]1` [EIDD-02749, 1-[(2R,3R,4S,5S)-5-fluoro-3,4-dihydroxy-5-(hydroxymethyl)tetrahydrofuran-2-yl]pyrimidine-2,4-dione], the half-life at 1 μM in data set [1] worked out at 22 min; in data set [2], 26 min; in data set [3] it was 37 min; in data set [4] it was 25 min; in data set [5] it was 22 min; in data set [6], 27 min. Further, the AUC(0-inf) in data set [7] (ip, 10 mg/kg) stood at 19.6 µM·h; in data set [7] (po, 50 mg/kg), 232 µM·h; in data set [7] (po, 150 mg/kg), 392 µM·h; in data set [7] (po, 500 mg/kg), 755 µM·h. Moreover, the half-life in data set [7] (ip, 10 mg/kg) is 378 min; in data set [7] (po, 50 mg/kg) it was 498 min; in data set [7] (po, 150 mg/kg) it was 510 min; in data set [7] (po, 500 mg/kg) it was 774 min. Besides, the bioavailability in data set [7] (po, 50 mg/kg) amounted to 236%; in data set [7] (po, 150 mg/kg), 133%; in data set [7] (po, 500 mg/kg) it was 77%.
Regarding `CC(C)[C@H](N)C(=O)OC[C@@]1(F)O[C@@H](n2ccc(=O)[nH]c2=O)[C@H](O)[C@@H]1O.Cl` [EIDD-2971, [(1S)-1-[[(2S,3S,4R,5R)-5-(2,4-dioxopyrimidin-1-yl)-2-fluoro-3,4-dihydroxy-tetrahydrofuran-2-yl]methoxycarbonyl]-2-methyl-propyl]ammonium chloride], the half-life at 1 μM came out at 50 min in data set [1]; 81 min in data set [2]; 59 min in data set [3]; 33 min in data set [4]; 38 min in data set [5]; 11 min in data set [6].
